{"source": "patent US20200163938A1", "about": "“PHARMACEUTICAL COMPOSITION COMPRISING IRON CHELATOR EXHIBITING ANTITUMOR ACTIVITY, ANTIBACTERIAL ACTIVITY AND/OR ANTIVIRUS ACTIVITY, AND HAVING REDUCED SIDE EFFECTS” (priority 2017, published 2020)", "key": {"HSC-2 cells [1]": {"test_system": "HSC-2 cells", "assay": "Apoptosis induction, TUNEL staining", "type": "cell-based, human", "details": "100 μg/mL, 48 hours, FIG. 11A", "description": "(§1) Furthermore, the apoptosis-inducing effects of the chelating agents of test groups 6 and 10 on tumors were confirmed. First, 100 μg/mL of the chelating agent of test group 6 or 50 μg/mL of the chelating agent of test group 10 was added to HSC-2 cells in a culture solution. After 48 hours of reaction, TUNEL Assay was carried out. Specifically, apoptosis induction was evaluated by the TUNEL staining method using a MK500 in situ Apoptosis Detection Kit (Takara Bio Inc.)."}, "P. gingivalis Pg W83": {"test_system": "P. gingivalis Pg W83", "assay": "Antibacterial activity, turbidity and ATP assay", "type": "cell-based, Porphyromonas gingivalis", "details": "anaerobic culture 37° C., 18 hours, OD595 nm; FIG. 8", "description": "A bacterial strain of one of periodontopathic bacteria, gram-negative bacillus, P. gingivalis, used herein was Pg W83. With the use of a liquid medium prepared by adding the chelating agent of each test group to a modified GAM bouillon medium, anaerobic culture (Anaeropack.anaerobic) was performed at 37° C. for 18 hours. Turbidity was found from optical density (OD595 nm). Results were as depicted in FIG. 8."}, "HCT116 cells": {"test_system": "HCT116 cells", "assay": "Apoptosis induction, TUNEL staining", "type": "cell-based, human", "details": "10 μg/mL, 48 hours, FIG. 11B", "description": "as §1\n(§2) Similarly, the apoptosis-inducing effects of the chelating agent of test group 6 or 10 on HCT116 cells were confirmed. 10 μg/mL of the chelating agent of test group 6 was added and 6.5 µg/mL of the chelating agent of test group 10 was added to the cells. After 48 hours of reaction, TUNEL staining was carried out similarly to the above."}, "A549 cells [2]": {"test_system": "A549 cells", "assay": "Apoptosis induction, TUNEL staining", "type": "cell-based, human", "details": "100 μg/mL, 48 hours, FIG. 11C", "description": "as §1\nas §2, with “Further, the” for “Similarly, the”, “on A549” for “on HCT116”, “confirmed. 100” for “confirmed. 10”, “and 50 μg/mL” for “and 6.5 µg/mL”"}, "A549 cells [3]": {"test_system": "A549 cells", "assay": "Western blot of apoptosis-related factors", "type": "cell-based, human", "details": "A549 cell lysate; FIG. 12", "text": "(§3) The cell lysate of each type of cells treated with the chelating agents of test groups 6 and 10 was Western-blotted, and then an increase or a decrease in apoptosis-related factors in treated cells was confirmed using the indicated antibodies. […] Concentration-dependent apoptosis induction was also biochemically confirmed."}, "HSC-2 cells [4]": {"test_system": "HSC-2 cells", "assay": "Western blot of apoptosis-related factors", "type": "cell-based, human", "details": "HSC-2 cell lysate; FIG. 12", "text": "as §3"}, "MCF-7 cells": {"test_system": "MCF-7 cells", "assay": "Western blot of apoptosis-related factors", "type": "cell-based, human", "details": "MCF-7 cell lysate; FIG. 12", "text": "as §3"}, "[5]": {"test_system": "human oral squamous cell carcinoma HSC-2", "assay": "Antitumor effects, cell viability (XTT method)", "type": "cell-based", "details": "FIG. 10", "description": "(§4) The antitumor effects of the chelating agents of test groups 1 to 10 on each of human lung cancer cell line A549, human liver cancer cell line PLC, and human colon adenocarcinoma cell line HCT116 were confirmed. A549 cells or PLC cells were seeded at 3000 cells/well, and HCT116 cells were seeded at 6000 cells/well. After 24 hours, the fetal bovine serum (FBS) concentration was changed from 10% to 1%, each compound of the test groups 1 to 10 was introduced into medium. Cell viability was confirmed after 48 hours by the Trypan blue method, or, cell viability was confirmed after 48 hours by performing medium exchange and then after 24 hours by performing the XTT method. Deferoxamine mesylate (Desferal (Trademark)) was used as a positive control. Results are as depicted in FIGS. 1A, 1B, 2 and 3.\n(§5) Moreover, similarly to the above experiment on antitumor effects, the antitumor effects of the chelating agent of test group 6 or 10 on each of human breast cancer cell line MCF-7 and human oral squamous cell carcinoma HSC-2 were confirmed."}, "[6]": {"test_system": "human breast cancer cell line MCF-7", "assay": "Antitumor effects, cell viability (XTT method)", "type": "cell-based", "details": "FIG. 9", "description": "as §4, §5"}, "[7]": {"test_system": "subcutaneously-transplanted HCT116 cells", "type": "in vivo, nude mice (BALB/c nu/nu)", "details": "mouse, in vivo, 200 mg/kg/day", "description": "Next, the antitumor effects of the chelating agents of test groups 6 and 10 on HCT116-cell subcutaneous transplantation model mice, into which HCT116 cells had been subcutaneously transplanted, were confirmed. Mice prepared herein were nude mice (BALB/c nu/nu, 6 weeks old: Clea Japan Inc.). HCT116 cells were adjusted at 3×10^6/mouse, and then mixed with Matrigel (BD Biosciences) at 1:1. The thus obtained mixture was administered to mice, thereby preparing subcutaneous tumors. The dosage was 200 mg/kg/day (5 times/week administration). […] Tissue sections of HCT116 cells subcutaneously transplanted into the test group 10 administration group were prepared, and then hematoxylin-eosin (HE) staining, and TUNEL staining were performed by the above-mentioned method."}, "[8]": {"type": "in vivo", "set-up": "NEFA: unit not given here", "details": "for Body weight: rats", "description": "To a negative control group (saline administration; n=6), the same amount of saline was administered. On day 14 after administration, determining life or death, measurement of body weight, physical items (respiration, body temperature, behavior, etc.) were observed. Moreover, blood samples were taken from each group, and the right kidneys and the livers were removed. Results were as depicted in FIG. 5A to 5C and Tables 4 to 9."}, "[9]": {"details": "rat blood, oral 200 mg/kg, day 14"}, "[10]": {"details": "rat blood, oral 1000 mg/kg, day 14, 1000 mg/kg"}}, "note": "Several values for one entry are separate records, joined by “and”; a condition that tells them apart may be missing. Equal values may be shown once. Read-outs that look alike come from different tables or passages of the source."}
{"molecule": "Cl.OCC1OC(O)C(NCc2ccc(O)c(O)c2O)C(O)C1O", "note": "(stereo not drawn) [Test group 6]", "values": [{"measurement": "apoptosis-inducing effects (TUNEL staining)", "setting": "HSC-2 cells [1]", "result": "green-stained cells indicating apoptosis were confirmed"}, {"measurement": "antimicrobial effects on P. gingivalis (turbidity)", "setting": "P. gingivalis Pg W83", "result": "exhibited antimicrobial effects"}, {"measurement": "apoptosis-inducing effects (TUNEL staining)", "setting": "HCT116 cells", "result": "green-stained cells indicating apoptosis were confirmed"}, {"measurement": "apoptosis-inducing effects (TUNEL staining)", "setting": "A549 cells [2]", "result": "green-stained cells (FITC positive cells) indicating apoptosis were confirmed"}, {"measurement": "PARP cleaved fragments and caspase-3-cleaved fragments (Western blot)", "setting": "A549 cells [3]", "result": "PARP cleaved fragments and caspase-3-cleaved fragments were confirmed"}, {"measurement": "PARP cleaved fragments and caspase-3-cleaved fragments (Western blot)", "setting": "HSC-2 cells [4]", "result": "PARP cleaved fragments and caspase-3-cleaved fragments were confirmed"}, {"measurement": "PARP cleaved fragments and caspase-3-cleaved fragments (Western blot)", "setting": "MCF-7 cells", "result": "PARP cleaved fragments and caspase-3-cleaved fragments were confirmed"}, {"measurement": "antitumor effects on HSC-2 (cell viability)", "setting": "[5]", "result": "exhibit antitumor effects"}, {"measurement": "antitumor effects on MCF-7 (cell viability)", "setting": "[6]", "result": "exhibit antitumor effects"}, {"measurement": "body weight change", "setting": "[7]", "result": "no body weight change due to administration was observed"}, {"measurement": "ALP", "setting": "[8]; [9]", "result": 745, "unit": "IU/L"}, {"measurement": "ALT", "setting": "[8]; [9]", "result": 34, "unit": "IU/L"}, {"measurement": "AST", "setting": "[8]; [9]", "result": 58, "unit": "IU/L"}, {"measurement": "BUN", "setting": "[8]; [9]", "result": 27.2, "unit": "mg/dL"}, {"measurement": "CRE", "setting": "[8]; [9]", "result": 0.37, "unit": "mg/dL"}, {"measurement": "Ca", "setting": "[8]; [9]", "result": 10.2, "unit": "mg/dL"}, {"measurement": "GLU", "setting": "[8]; [9]", "result": 212, "unit": "mg/dL"}, {"measurement": "K", "setting": "[8]; [9]", "result": 3.6, "unit": "mEQ/L"}, {"measurement": "LD", "setting": "[8]; [9]", "result": 45, "unit": "IU/L"}, {"measurement": "NEFA", "setting": "[8]; [9]", "result": 58}, {"measurement": "Na", "setting": "[8]; [9]", "result": 141, "unit": "mEQ/L"}, {"measurement": "T-Bil", "setting": "[8]; [9]", "result": 0.03, "unit": "mg/dL"}, {"measurement": "TP", "setting": "[8]; [9]", "result": 5.1, "unit": "g/dL"}, {"measurement": "ALP", "setting": "[8]; [10]", "result": "437 IU/L and 471 IU/L"}, {"measurement": "BUN", "setting": "[8]; [10]", "result": "22.2 mg/dL and 28.9 mg/dL"}, {"measurement": "CRE", "setting": "[8]; [10]", "result": "0.31 mg/dL and 0.48 mg/dL"}, {"measurement": "Ca", "setting": "[8]; [10]", "result": "10.2 mg/dL and 11.0 mg/dL"}, {"measurement": "GLU", "setting": "[8]; [10]", "result": "159 mg/dL and 199 mg/dL"}, {"measurement": "K", "setting": "[8]; [10]", "result": "4.5 mEQ/L and 4.1 mEQ/L"}, {"measurement": "Na", "setting": "[8]; [10]", "result": "144 mEQ/L and 143 mEQ/L"}, {"measurement": "TP", "setting": "[8]; [10]", "result": "5.4 g/dL and 5.1 g/dL"}, {"measurement": "Body weight", "setting": "[8]; oral 200 mg/kg", "result": 180.37, "unit": "g"}, {"measurement": "Body weight", "setting": "[8]; oral 1000 mg/kg, 1000 mg/kg", "result": "174.48 g and 178.68 g"}]}
